PubChem BioAssay AID1845202 (Molecular Pharmacology Branch, DTP, NCI, 2023)

System: DMS 114 tumor spheroids, viability % test/control
Experiment: Anticancer human tumor DMS 114 cell line growth inhibition;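 note: spheroids exposed to compounds for 7 days before read-out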;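 for viability, T/C: luminescence used as a proxy for viable cells; 100% = DMSO vehicle control viability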
Conditions: spheroids with HUVEC and MSC; for IC50: curve of first compound; for viability, T/C: stronger effect = lower value
Summary of the method: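 Complex spheroids of malignant cells with endothelial cells and mesenchymal stem cells; agents alone or combined, from near clinical Cmax (or 10 microM if unknown) down in half-log steps, 0.25% DMSO final.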

[1] = second compound 30 pM, first compound 0.0316 µM
[2] = second compound 30 pM, first compound 0.1 µM
[3] = second compound 30 pM, first compound 0.316 µM
[4] = second compound 30 pM, first compound 1 µM
[5] = second compound 30 pM, first compound 3.16 µM
[6] = second compound 30 pM, first compound 10 µM
[7] = second compound 94.9 pM, first compound 0.0316 µM
[8] = second compound 94.9 pM, first compound 0.1 µM
[9] = second compound 94.9 pM, first compound 0.316 µM
[10] = second compound 94.9 pM, first compound 1 µM
[11] = second compound 94.9 pM, first compound 3.16 µM
[12] = second compound 94.9 pM, first compound 10 µM
[13] = second compound 0.0003 µM, first compound 0.0316 µM
[14] = second compound 0.0003 µM, first compound 0.1 µM
[15] = second compound 0.0003 µM, first compound 0.316 µM
[16] = second compound 0.0003 µM, first compound 1 µM
[17] = second compound 0.0003 µM, first compound 3.16 µM
[18] = second compound 0.0003 µM, first compound 10 µM
[19] = second compound 0.000949 µM, first compound 0.0316 µM
[20] = second compound 0.000949 µM, first compound 0.1 µM
[21] = second compound 0.000949 µM, first compound 0.316 µM
[22] = second compound 0.000949 µM, first compound 1 µM
[23] = second compound 0.000949 µM, first compound 3.16 µM
[24] = second compound 0.000949 µM, first compound 10 µM
[25] = second compound 0.003 µM, first compound 0.0316 µM
[26] = second compound 0.003 µM, first compound 0.1 µM
[27] = second compound 0.003 µM, first compound 0.316 µM
[28] = second compound 0.003 µM, first compound 1 µM
[29] = second compound 0.003 µM, first compound 3.16 µM
[30] = second compound 0.003 µM, first compound 10 µM

| Structure (SMILES) | IC50 (second compound 30 pM) [nM] | IC50 (second compound 94.9 pM) [nM] | IC50 (second compound 0.0003 µM) [nM] | IC50 (second compound 0.000949 µM) [nM] | IC50 (second compound 0.003 µM) [nM] | viability, T/C [1] [%] | viability, T/C [2] [%] | viability, T/C [3] [%] | viability, T/C [4] [%] | viability, T/C [5] [%] | viability, T/C [6] [%] | viability, T/C [7] [%] | viability, T/C [8] [%] | viability, T/C [9] [%] | viability, T/C [10] [%] | viability, T/C [11] [%] | viability, T/C [12] [%] | viability, T/C [13] [%] | viability, T/C [14] [%] | viability, T/C [15] [%] | further results |
| --- | --- | --- | --- | --- | --- | --- | --- | --- | --- | --- | --- | --- | --- | --- | --- | --- | --- | --- | --- | --- | --- |
| CC(C)n1c(=O)n(C)c2cnc3cc(F)c(-c4ccc(OCCCN5CCCCC5)nc4)cc3c21 + COc1cc2c(cc1O)CCNC21CSC2c3c(OC(C)=O)c(C)c4c(c3C(COC1=O)N1C(O)C3Cc5cc(C)c(OC)c(O)c5C(C21)N3C)OCO4 | 4100 | 1600 | < 31.6 | < 31.6 | < 31.6 | 75.2 | 102 | 91.9 | 84.7 | 59 | 19.2 | 63 | 52.2 | 54.2 | 58.5 | 42.3 | 16.5 | 21.9 | 23.5 | 22.8 | viability, T/C [16]: 20.6%; viability, T/C [17]: 22.3%; viability, T/C [18]: 8.07%; viability, T/C [19]: 2.63%; viability, T/C [20]: 2.62%; viability, T/C [21]: 2.73%; viability, T/C [22]: 5.38%; viability, T/C [23]: 2.74%; viability, T/C [24]: 1.03%; viability, T/C [25]: 0.2%; viability, T/C [26]: 0.22%; viability, T/C [27]: 0.17%; viability, T/C [28]: 0.14%; viability, T/C [29]: 0.12%; viability, T/C [30]: 0.23% |
| CC1COCCN1c1cc(-c2ccnn2C)c2ccnc(-c3ccn[nH]3)c2n1 (stereo not given) + COc1cc2c(cc1O)CCNC21CSC2c3c(OC(C)=O)c(C)c4c(c3C(COC1=O)N1C(O)C3Cc5cc(C)c(OC)c(O)c5C(C21)N3C)OCO4 | < 31.6 | < 31.6 | < 31.6 | < 31.6 | < 31.6 | 28.2 | 21.9 | 17.3 | 11.8 | 7.86 | 10.1 | 17.6 | 15.9 | 12.1 | 9.53 | 6.98 | 8.67 | 9.96 | 7.98 | 7.58 | viability, T/C [16]: 5.84%; viability, T/C [17]: 4.87%; viability, T/C [18]: 5.28%; viability, T/C [19]: 1.57%; viability, T/C [20]: 1.39%; viability, T/C [21]: 1.26%; viability, T/C [22]: 0.89%; viability, T/C [23]: 1.12%; viability, T/C [24]: 0.45%; viability, T/C [25]: 0.2%; viability, T/C [26]: 0.22%; viability, T/C [27]: 0.15%; viability, T/C [28]: 0.15%; viability, T/C [29]: 0.12%; viability, T/C [30]: 0.22% |
| COc1cc(C)[nH]c(=O)c1CN1CCc2c(Cl)cc(C(OC)C3COC3)c(Cl)c2C1=O (stereo not given) + COc1cc2c(cc1O)CCNC21CSC2c3c(OC(C)=O)c(C)c4c(c3C(COC1=O)N1C(O)C3Cc5cc(C)c(OC)c(O)c5C(C21)N3C)OCO4 | > 10000 | > 10000 | < 31.6 | < 31.6 | < 31.6 | 118 | 90.5 | 83.5 | 82.1 | 74.8 | 69.6 | 89.1 | 85.9 | 86.7 | 66.2 | 65.1 | 56 | 38.9 | 43.3 | 41.4 | viability, T/C [16]: 34.7%; viability, T/C [17]: 28.9%; viability, T/C [18]: 26.6%; viability, T/C [19]: 2.76%; viability, T/C [20]: 4.07%; viability, T/C [21]: 4.68%; viability, T/C [22]: 3.28%; viability, T/C [23]: 2.76%; viability, T/C [24]: 1.64%; viability, T/C [25]: 0.25%; viability, T/C [26]: 0.27%; viability, T/C [27]: 0.26%; viability, T/C [28]: 0.24%; viability, T/C [29]: 0.24%; viability, T/C [30]: 0.29% |
| COc1ccc([C@@H](O)c2cc(-c3ncnc4cc(N5CCOCC5)ccc34)c(F)cc2Cl)nn1 + COc1cc2c(cc1O)CCNC21CSC2c3c(OC(C)=O)c(C)c4c(c3C(COC1=O)N1C(O)C3Cc5cc(C)c(OC)c(O)c5C(C21)N3C)OCO4 | 4790 | 1680 | < 31.6 | < 31.6 | < 31.6 | 113 | 99.8 | 102 | 96.7 | 63.7 | 25.1 | 108 | 101 | 92.9 | 65.2 | 31.3 | 13.3 | 39.6 | 37.6 | 35.7 | viability, T/C [16]: 13.4%; viability, T/C [17]: 5.07%; viability, T/C [18]: 2.36%; viability, T/C [19]: 3.78%; viability, T/C [20]: 3.32%; viability, T/C [21]: 1.74%; viability, T/C [22]: 0.47%; viability, T/C [23]: 0.07%; viability, T/C [24]: 0.17%; viability, T/C [25]: 0.25%; viability, T/C [26]: 0.28%; viability, T/C [27]: 0.28%; viability, T/C [28]: 0.31%; viability, T/C [29]: 0.29%; viability, T/C [30]: 0.36% |
| Cc1cc(C)c(CNC(=O)c2cc(-c3ccc(CN4CCOCC4)cc3)cc3c2cnn3C2CCCC2)c(=O)[nH]1 + COc1cc2c(cc1O)CCNC21CSC2c3c(OC(C)=O)c(C)c4c(c3C(COC1=O)N1C(O)C3Cc5cc(C)c(OC)c(O)c5C(C21)N3C)OCO4 | > 10000 | > 10000 | < 31.6 | < 31.6 | < 31.6 | 112 | 100 | 104 | 113 | 115 | 73.2 | 113 | 108 | 112 | 102 | 98.6 | 52.1 | 40.1 | 35.8 | 48.1 | viability, T/C [16]: 38.8%; viability, T/C [17]: 41.4%; viability, T/C [18]: 35.6%; viability, T/C [19]: 2.74%; viability, T/C [20]: 3.63%; viability, T/C [21]: 3.61%; viability, T/C [22]: 3.83%; viability, T/C [23]: 3.94%; viability, T/C [24]: 4.03%; viability, T/C [25]: 0.31%; viability, T/C [26]: 0.33%; viability, T/C [27]: 0.32%; viability, T/C [28]: 0.44%; viability, T/C [29]: 0.34%; viability, T/C [30]: 0.4% |
| [2H]c1nc(C)nc([2H])c1-c1cc(NC[C@@H](C)c2cccc3c(C(=O)NC)ccnc23)ncn1 + COc1cc2c(cc1O)CCNC21CSC2c3c(OC(C)=O)c(C)c4c(c3C(COC1=O)N1C(O)C3Cc5cc(C)c(OC)c(O)c5C(C21)N3C)OCO4 | > 10000 | > 10000 | < 31.6 | < 31.6 | < 31.6 | 105 | 113 | 106 | 109 | 107 | 97.6 | 111 | 107 | 108 | 111 | 98.3 | 98 | 44.4 | 38.9 | 39 | viability, T/C [16]: 42.1%; viability, T/C [17]: 37.4%; viability, T/C [18]: 42.4%; viability, T/C [19]: 2.57%; viability, T/C [20]: 4.99%; viability, T/C [21]: 2.84%; viability, T/C [22]: 4.1%; viability, T/C [23]: 3.19%; viability, T/C [24]: 3.15%; viability, T/C [25]: 0.21%; viability, T/C [26]: 0.22%; viability, T/C [27]: 0.17%; viability, T/C [28]: 0.21%; viability, T/C [29]: 0.16%; viability, T/C [30]: 0.28% |
